“And” between values parts separate entries of the source, which are not always exact repeats. Equal entries are not always repeated. Where two headings read alike, the source gives them in different places.
Experiments:
CYP1A2 = target: T1, CYP1A2 (Homo sapiens, UniProt P05177); test: CYP inhibition in liver microsomes (phenacetin); conditions: IC50, CYP 1A2, marker substrate phenacetin
T1 sequence (P05177 1-516): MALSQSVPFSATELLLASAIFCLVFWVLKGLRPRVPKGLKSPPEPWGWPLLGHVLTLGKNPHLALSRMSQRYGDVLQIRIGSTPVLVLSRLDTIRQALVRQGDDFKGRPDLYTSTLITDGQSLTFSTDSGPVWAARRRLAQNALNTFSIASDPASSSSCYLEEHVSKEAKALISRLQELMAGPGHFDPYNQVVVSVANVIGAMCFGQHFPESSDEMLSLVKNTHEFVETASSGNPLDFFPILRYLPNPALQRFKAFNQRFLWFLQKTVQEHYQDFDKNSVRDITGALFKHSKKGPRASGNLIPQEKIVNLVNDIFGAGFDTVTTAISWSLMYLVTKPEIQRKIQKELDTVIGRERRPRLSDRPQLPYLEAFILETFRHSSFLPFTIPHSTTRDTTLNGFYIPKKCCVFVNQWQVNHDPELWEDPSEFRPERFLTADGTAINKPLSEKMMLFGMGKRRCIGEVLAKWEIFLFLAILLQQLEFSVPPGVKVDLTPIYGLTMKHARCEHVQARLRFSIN
Procedure: A liver microsome working solution (20 mg/mL) contained potassium phosphate buffer (0.1 M, pH 7.4), hepatic microsomes and marker substrate solution, which phenacetin, diclofenic acid, S-mephenytoinwer, dextromethorphan, midazolam, coumarin and chlorzoxazone used as substrates for […], CYP2C9, CYP2C19, CYP2D6, CYP3A4/5, CYP2A6 and CYP2E1, respectively. In brief, 238.5 µL of liver microsome working solution was placed in a 1 mL EP tube. […] The reaction was started by injecting NADPH (1 mM), and the resulting mixture was incubated at 37 °C for 10 min. After centrifuging at 4000 rpm for 15 min, the supernatant was transferred and analyzed using LC-MS/MS to detect the corresponding metabolites. Each incubation was conducted in triplicate (n = 3).
An API 4000 LC/tandem mass spectrometry was used to analyze the concentration of metabolites of various chemical agents using a validated mode. An Atlantis T3 column (2.1 mm × 50 mm, 5 μm) was utilized, employing mobile phases consisting of a 0.1% formic acid solution (A) and a 0.1% acetonitrile formate solution (B). […] As for the detection of CYP 2E1 metabolite, the Flow composition was as follows: 0–0.30 min, 10% B; 0.30–1.30 min, 10–55% B; 1.30–1.50 min, 55–95% B; 1.50–2.00 min, 95% B; 2.00–2.01 min, 95–10% B; the low rate was 0.85 mL/min. ESI was conducted in positive ion mode. MRM was utilized to quantify each metabolite, detecting the following transitions: m/z 152.1/110 for acetaminophen, 312.1/230.0 for 4′-Hydroxydiclofenac, 235.0/150.0 for 4′-hydroxymephentoin, 258.2/199.1 for Dextrorphan, 342.1/203.0 for 1′-hydroxymidazolam, 161.1/133.1 for hydroxycoumarin, and 184.0/120.0 for 6-hydroxyclozoxadone.

[1] = Stereoselective pharmacokinetics in rat liver tissue; format: in vivo, Sprague–Dawley rats; conditions: rat liver, oral 40 mg/kg farrerol racemate; for Cmax / AUC(0–t) / AUC(0–∞): 40 mg/kg
Procedure: Forty-two rats were divided randomly into seven groups (6 rats per time point at 0.5, 1, 2, 4, 8, 12, and 24 h) and were orally administered farrerol racemate at a dose of 40 mg/kg. Rats from each group were euthanized, and kidney and liver tissues were subsequently obtained. After washing three times using 0.9% sodium chloride solution, the attached blood and fat tissues were removed. Afterward, 0.5 g of the precisely weighed liver and kidney tissues were added to 1 mL 0.9% sodium chloride solution and homogenized in an ice bath. Subsequently, 150 µL of supernatant was transferred into a 2.0 mL EP tube for pre-treatment, in the same way as the pretreatment of plasma samples (see Section 3.4.1).
Stereoselective chromatographic analysis of farrerol enantiomers was conducted utilizing an ACQUITY UPLC I-Class UPLC system (Waters, Milford, MA, USA), which is equipped with a quaternary pump and an autosampler. The chiral separation was carried out employing a Chiralpak OJ-RH column (250 mm × 4.6 mm, 5 μm), which was obtained from Daicel Chemical Industries (Shanghai, China). The mobile phase consisted of ACN-H2O (60:40, v/v), and the constant flow rate was 0.5 mL/min. The column temperature was set at 25 °C, and the injection volume was 10 μL.
Mass detection was conducted using a triple quadrupole mass spectrometer (Waters Co., USA) equipped with an electrospray ionization (ESI) source. The detection of enantiomers and internal standards (IS) was carried out in multiple reaction monitoring (MRM) mode utilizing negative ionization. The m/z 299→179 for enantiomers and m/z 267→252 for IS were selected as detecting ions for quantitation. The collision energies (CE) were established at 22 eV and 20 eV, respectively. The primary mass spectrometry (MS) parameters were configured as follows: capillary voltage was set to 3.5 kV, ion source temperature was maintained at 150 °C, desolvation gas flow rate was 800 L/h, and the cone voltage (CV) was adjusted to 1.3 V.
Pharmacokinetic analysis was conducted utilizing the Drug and Statistics (DAS) 2.0 software provided by the Chinese Pharmacological Society. To assess the differences in pharmacokinetic parameters, the IC50 values of the evaluated CYP enzymes and the permeability coefficients between the two farrerol enantiomers, paired sample t-tests and independent sample t-tests were performed. Statistical significance was defined as * p < 0.05 and ** p < 0.01. All results are presented as mean values ± standard deviation (SD).

SMILES | IC50 (CYP1A2) | Cmax ([1]; Sprague-Dawley, rat, liver, po, read-out: Cmax) | Tmax ([1]; Sprague-Dawley, read-out: Tmax) | AUC(0–t) [1] | AUC(0–∞) [1] | AUC0–24 of (−)-farrerol relative to (+)-farrerol [1] | Cmax of (−)-farrerol relative to (+)-farrerol [1] | Tmax [1] | Cmax [1]
Cc1c(O)c(C)c2c(c1O)C(=O)CC(c1ccc(O)cc1)O2 (single isomer, unassigned; (+)) [(+)-farrerol, 2,3-dihydro-5,7-dihydroxy-2-(4-hydroxyphenyl)-6,8-dimethyl-4-benzopyrone] | 588 nM | 104000 ± 18000 ng/g | 2 h | 976.25 ± 41.60 µg·h/g | 994.01 ± 40.84 µg·h/g |  |  |  | 
Cc1c(O)c(C)c2c(c1O)C(=O)CC(c1ccc(O)cc1)O2 (single isomer, unassigned; (-)) [(−)-farrerol, 2,3-dihydro-5,7-dihydroxy-2-(4-hydroxyphenyl)-6,8-dimethyl-4-benzopyrone] | 1020 nM |  |  | 1200.9 µg/g*h and 1200.96 ± 58.92 * µg/g*h | 1217.62 ± 65.03 * µg/g*h | 1.23 times | 1.43 times | 2.00 h | 148.4 ± 2.61 * µg/g

Source: PMC12073438, “Stereoselectivity of In Vivo Processes and Bioactivity of Farrerol Enantiomers” (Molecules, 2025)
